Measurements reported in patent US20240245711A1, “A 19-NOR C3,3-DISUBSTITUTED C21-N-PYRAZOLYL STEROID FOR THE TREATMENT OF MAJOR DEPRESSIVE DISORDER” (Sage Therapeutics, Inc., priority 2021, published 2024).
Entries after “also recorded” stand apart in the source; their conditions may differ.

System: adult subjects with Major Depressive Disorder
Experiment: Phase 3 open-label 1-year study: safety and tolerability (TEAEs, SAEs, C-SSRS)
Type: in vivo, human
Details: for Subjects reporting TEAEs leading to dose reduction: Low dose cohort; for Subjects with Treatment Cycle Period TEAE / Subjects with Treatment Period TEAE: Study Period 1 only
Protocol: Primary Objective: To determine the safety and tolerability of initial treatment and re-treatment(s) with Compound (1) in adults with Major Depressive Disorder (MDD) currently experiencing a major depressive episode (MDE) over a 1-year period.
Study Population: Subjects were 18-75 years old, diagnosed with major depressive disorder (MDD) with a MADRS total score of ≥28 and a HAM-D total score of ≥20 at Screening and Day 1 (prior to dosing).
Treatment Groups: The 30 mg and 50 mg dose groups were separated by time of enrollment. The study is comprised of two cohorts: one with Compound (1) 30 mg as a starting dose (30 mg Cohort: n=725), an initial cohort with Compound (1) 50 mg as a starting dose (50 mg Cohort: n=199). A patient receiving Compound (1) 30 mg could be dose reduced to 20 mg and patients receiving Compound (1) 50 mg could be dose reduced to 40 mg (based on tolerability). In all cohorts, Compound (1) is self-administered by patients as an oral therapy once nightly with food for 14 days.
The study has a Screening Period of up to 28 days, a 14-day Treatment Period, and up to 1 year of Follow-up. FIG. 1 is an overview of the study.
Antidepressants were permitted provided subjects were on a stable dose for at least 60 days prior to Day 1 and agreed to continue on the stable dose through the follow-up period (Day 42). Initiation of new antidepressants or any other medications that may potentially have an impact on efficacy or safety endpoints were not allowed between screening and completion of the Day 42 assessments.
Eligible subjects were given Compound (1)—to be taken at home in the evening with meal.
Subjects who continued in the Observation Period were monitored remotely via PHQ-9 assessment every two weeks. If PHQ-9 score was >=10 at any assessment, PHQ-9 assessment was switch to every week until the score came down below 10 or the subject was dosed with Compound (1) in a subsequent cycle, whichever was earlier. A subject was to come back to the site for HAM-D assessment within a week of PHQ-9 score >=10; if the HAM-D total score >=20 and at least 56 days had elapsed since the last dose of Compound (1), another dosing cycle of Compound (1) were to start. If any of these criteria were not met, the subject couldn't be treated with Compound (1) at that time. Without the trigger of PHQ-9>=10 the subject was to have a clinic visit every 8 weeks. A subject could have at most 5 cycles of treatment within a year. FIG. 2 is a depiction of the eligibility criteria of the study.
Dose reduction from 30 mg to 20 mg or 50 mg to 40 mg was allowed in any treatment cycle if the safety and/or tolerability of the subject so warrants. […] Subjects who dose reduced from 30 mg to 20 mg still started with 30 mg in the next treatment cycle.
The cohorts pertaining to the different doses that the subjects received were defined as following: • 50 mg cohort: This cohort includes subjects who have initiated treatment with 50 mg and received re-treatment with 50 mg only. • 30 mg cohort: This cohort includes subjects who have initiated treatment with 30 mg regardless of the dose they have received in re-treatments. • Low dose cohort: This cohort includes subjects who have initiated treatment with 30 mg and received re-treatment with 30 mg only. • Dose switch cohort: This cohort includes subjects who have received initial treatment with 30 mg and at least one subsequent re-treatment with 50 mg. • Study Period X: starts on the date of the first dose of Compound (1) in cycle X and goes up to one day prior to the first dose of the next cycle. […]

[1] = Low Dose Cohort, ATD use at period-specific baseline No, Study Period 3
[2] = Low Dose Cohort, ATD use at period-specific baseline No, Study Period 4
[3] = Low Dose Cohort, ATD use at period-specific baseline No, Study Period 5
[4] = Low Dose Cohort, ATD use at period-specific baseline Yes, Study Period 1
[5] = Low Dose Cohort, ATD use at period-specific baseline Yes, Study Period 2
[6] = Low Dose Cohort, ATD use at period-specific baseline Yes, Study Period 3
[7] = Low Dose Cohort, ATD use at period-specific baseline Yes, Study Period 4
[8] = Low Dose Cohort, ATD use at period-specific baseline Yes, Study Period 5
[9] = overall study population (Example 5)

Structure (SMILES): C[C@@]1(O)CC[C@H]2[C@H](CC[C@@H]3[C@@H]2CC[C@]2(C)[C@@H](C(=O)Cn4cc(C#N)cn4)CC[C@@H]32)C1 [Compound (1), 1-(2-((3R,5R,8R,9R,10S,13S,14S,17S)-3-hydroxy-3,13-dimethylhexadecahydro-1H-cyclopenta[a]phenanthren-17-yl)-2-oxoethyl)-1H-pyrazole-4-carbonitrile]
- Subjects with at least one Treatment period AE (Low Dose Cohort, ATD use at period-specific baseline No, Study Period 2): 51 (43.2%)
- Subjects with a TEAE leading to study drug discontinuation [1]: 0%
- Subjects with a Treatment cycle period AE leading to study withdrawal [1]: 1 (2.4%)
- Subjects with at least one TEAE [1]: 21 (51.2%)
- Subjects with at least one Treatment cycle period TEAE [1]: 14 (34.1%)
- Subjects with at least one Treatment cycle period serious TEAE [1]: 1 (2.4%)
- Subjects with at least one Treatment cycle period severe TEAE [1]: 2 (4.9%)
- Subjects with at least one Treatment period AE [1]: 12 (29.3%)
- Subjects with a TEAE leading to study drug discontinuation [2]: 0%
- Subjects with a Treatment cycle period AE leading to study withdrawal [2]: 0%
- Subjects with at least one TEAE [2]: 8 (33.3%)
- Subjects with at least one Treatment cycle period TEAE [2]: 6 (25.0%)
- Subjects with at least one Treatment cycle period serious TEAE [2]: 0%
- Subjects with at least one Treatment cycle period severe TEAE [2]: 0%
- Subjects with at least one Treatment period AE [2]: 5 (20.8%)
- Subjects with a TEAE leading to study drug discontinuation [3]: 0%
- Subjects with a Treatment cycle period AE leading to study withdrawal [3]: 0%
- Subjects with at least one TEAE [3]: 3 (33.3%)
- Subjects with at least one Treatment cycle period TEAE [3]: 2 (22.2%)
- Subjects with at least one Treatment cycle period serious TEAE [3]: 0%
- Subjects with at least one Treatment cycle period severe TEAE [3]: 0%
- Subjects with at least one Treatment period AE [3]: 2 (22.2%)
- Subjects with a TEAE leading to study drug discontinuation [4]: (1.5%)
- Subjects with a Treatment cycle period AE leading to study withdrawal [4]: (1.9%)
- Subjects with at least one TEAE [4]: (57.9%)
- Subjects with at least one Treatment cycle period TEAE [4]: (50.4%)
- Subjects with at least one Treatment cycle period serious TEAE [4]: (0.4%)
- Subjects with at least one Treatment cycle period severe TEAE [4]: (2.3%)
- Subjects with at least one Treatment period AE [4]: (47.4%)
- Subjects with a TEAE leading to study drug discontinuation [5]: 1 (1.1%)
- Subjects with a Treatment cycle period AE leading to study withdrawal [5]: 1 (1.1%)
- Subjects with at least one TEAE [5]: 48 (54.5%)
- Subjects with at least one Treatment cycle period TEAE [5]: 36 (40.9%)
- Subjects with at least one Treatment cycle period serious TEAE [5]: 1 (1.1%)
- Subjects with at least one Treatment cycle period severe TEAE [5]: 2 (2.3%)
- Subjects with at least one Treatment period AE [5]: 29 (33.0%)
- Subjects with a TEAE leading to study drug discontinuation [6]: 0%
- Subjects with a Treatment cycle period AE leading to study withdrawal [6]: 0%
- Subjects with at least one TEAE [6]: 19 (42.2%)
- Subjects with at least one Treatment cycle period TEAE [6]: 14 (31.1%)
- Subjects with at least one Treatment cycle period serious TEAE [6]: 0%
- Subjects with at least one Treatment cycle period severe TEAE [6]: 0%
- Subjects with at least one Treatment period AE [6]: 12 (26.7%)
- Subjects with a TEAE leading to study drug discontinuation [7]: 0%
- Subjects with a Treatment cycle period AE leading to study withdrawal [7]: 0%
- Subjects with at least one TEAE [7]: 7 (36.8%)
- Subjects with at least one Treatment cycle period TEAE [7]: 3 (15.8%)
- Subjects with at least one Treatment cycle period serious TEAE [7]: 0%
- Subjects with at least one Treatment cycle period severe TEAE [7]: 0%
- Subjects with at least one Treatment period AE [7]: 3 (15.8%)
- Subjects with a TEAE leading to study drug discontinuation [8]: 0%
- Subjects with a Treatment cycle period AE leading to study withdrawal [8]: 0%
- Subjects with at least one TEAE [8]: 6 (54.5%)
- Subjects with at least one Treatment cycle period TEAE [8]: 4 (36.4%)
- Subjects with at least one Treatment cycle period serious TEAE [8]: 0%
- Subjects with at least one Treatment cycle period severe TEAE [8]: 0%
- Subjects with at least one Treatment period AE [8]: 4 (36.4%)
- Proportion of subjects reporting TEAEs (Low Dose cohort, as printed in b423 (451/677)): 66.6%
- SAEs considered probably or possibly related to the study drug (Low dose cohort (30 mg only), treatment cycle 1): none
- Subjects reporting TEAEs leading to dose reduction (Cycle 1): 3.4%
- Subjects reporting TEAEs leading to dose reduction (Cycle 2): 4.4%
- Subjects reporting TEAEs leading to dose reduction (Cycle 3): 2.3%
- Subjects reporting TEAEs leading to dose reduction (Cycle 4 (0/43)): 0%
- Subjects reporting TEAEs leading to dose reduction (Cycle 5): 10%
- Subjects reporting TEAEs leading to dose reduction (overall (32/645)): 5.0%
- Subjects with at least one TEAE (Overall (N = 924)): 618 (66.9%)
- Subjects with at least one TEAE leading to study drug discontinuation (Overall (N = 924)): 32 (3.5%)
- Subjects with at least one TEAE leading to study withdrawal (Overall (N = 924)): 46 (5.0%)
- Subjects with at least one serious TEAE (Overall (N = 924)): 27 (2.9%)
- Subjects with at least one severe TEAE (Overall (N = 924)): 60 (6.5%)
- Subjects with Treatment Cycle Period TEAE (30 mg Cohort (N = 725)): 368 (50.8%)
- Subjects with Treatment Period TEAE (30 mg Cohort (N = 725)): 348 (48.0%)
- Subjects with Treatment Cycle Period TEAE (50 mg Cohort (N = 199)): 117 (58.8%)
- Subjects with Treatment Period TEAE (50 mg Cohort (N = 199)): 108 (54.3%)
- Subjects with Treatment Cycle Period TEAE (Dose Switch Cohort (N = 80)): 31 (38.8%)
- Subjects with Treatment Period TEAE (Dose Switch Cohort (N = 80)): 28 (35.0%)
- Subjects with Treatment Cycle Period TEAE (Low Dose Cohort (N = 645)): 337 (52.2%)
- Subjects with Treatment Period TEAE (Low Dose Cohort (N = 645)): 320 (49.6%)
- Subjects with Treatment Cycle Period TEAE (Overall (N = 924)): 485 (52.5%)
- Subjects with Treatment Period TEAE (Overall (N = 924)): 456 (49.4%)
- Severity of the majority of TEAEs (all dose cohorts): mild to moderate; also recorded: mild or moderate
- Suicidal ideation or suicidal behavior compared to baseline (C-SSRS) (any study period or dose cohort): no signal for increased suicidal ideation or suicidal behavior
- Tolerability (first course of Compound (1) 30 mg): generally well-tolerated
- Most common AEs that led to dose reduction (in vivo): Somnolence, Dizziness, Sedation and Headache
- TEAE diarrhea [9]: 6.3%
- TEAE dizziness [9]: 9.1%
- TEAE dry mouth [9]: 5.5%
- TEAE headache [9]: 13.9%
- TEAE insomnia [9]: 5.4%
- TEAE sedation [9]: 8.7%
- TEAE somnolence [9]: 12.8%
- TEAE upper respiratory infection [9]: 6.3%
- Overall safety observations with 50 mg versus safety findings with 30 mg (subjects receiving Compound (1) 50 mg): comparable
- Subjects reporting SAEs (treatment cycle 1, 50 mg cohort (5/199)): 2.5%
- Subjects reporting SAEs (treatment cycle 1, Low Dose cohort (6/645)): 0.9%
